Reference: patent publication US6270979A (priority 1998, dated 2001)
Entries after “also recorded” stand apart in the source; their conditions may differ. Counter-ions that a name gives are not always drawn. Like-named read-outs stand apart in the source and are kept apart here.

Experiments:
opioid μ receptor [1] = biological target: opioid μ receptor (Homo sapiens, UniProt P35372); format: cell-based
μ opioid receptor [2] = biological target: T1, μ opioid receptor (Rattus norvegicus, UniProt P33535); conditions: added acutely, μ and EEμ receptor transfected HEK293 cells
T1 sequence (P33535 whole entry): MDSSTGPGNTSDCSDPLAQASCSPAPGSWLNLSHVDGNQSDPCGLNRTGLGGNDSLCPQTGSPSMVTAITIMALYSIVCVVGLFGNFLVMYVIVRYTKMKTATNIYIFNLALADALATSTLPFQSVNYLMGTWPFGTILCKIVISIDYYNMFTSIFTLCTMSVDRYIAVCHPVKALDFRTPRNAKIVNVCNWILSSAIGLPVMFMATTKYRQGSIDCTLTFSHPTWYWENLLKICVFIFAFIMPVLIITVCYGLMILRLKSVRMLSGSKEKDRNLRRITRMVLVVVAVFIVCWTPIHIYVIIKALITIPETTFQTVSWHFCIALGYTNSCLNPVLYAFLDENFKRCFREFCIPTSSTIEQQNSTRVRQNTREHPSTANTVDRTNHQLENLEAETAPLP

[3] = biological target: epitope-tagged μ opioid receptor (EE-μR) (Rattus norvegicus, UniProt P33535); format: cell-based
epitope-tagged μ opioid receptor (EE-μR), sequence (P33535 whole entry): as above

μ opioid receptor [4] = biological target: T1, μ opioid receptor; assay: Receptor recycling through endocytic vesicles; format: cell-based; design: expressed in transfected cells
Male ICR mice = conditions: mouse, in vivo
PKA = conditions: known; cited from earlier work
opioid μ receptor [5] = format: cell-based, human
Mice = format: in vivo
PKC = conditions: known; cited from earlier work
cAMP phosphodiesterase = conditions: generally recognized; Beavo et al.; cited from earlier work
[6] = system: muscarinic m1 receptor mutant m1-E360A; format: cell-based
[7] = system: D2 receptor (long splice isoform); assay: D2 receptor cAMP assay in stably transfected HEK293 cells; format: cell-based; conditions: for negative antagonism at D2 receptor: preliminary, stably transfected HEK293 cells, quinpirole as agonist
opioid μ receptor [8] = conditions: prior knowledge; cited from earlier work

opioid μ receptor (Homo sapiens, UniProt P35372), sequence (P35372 whole entry): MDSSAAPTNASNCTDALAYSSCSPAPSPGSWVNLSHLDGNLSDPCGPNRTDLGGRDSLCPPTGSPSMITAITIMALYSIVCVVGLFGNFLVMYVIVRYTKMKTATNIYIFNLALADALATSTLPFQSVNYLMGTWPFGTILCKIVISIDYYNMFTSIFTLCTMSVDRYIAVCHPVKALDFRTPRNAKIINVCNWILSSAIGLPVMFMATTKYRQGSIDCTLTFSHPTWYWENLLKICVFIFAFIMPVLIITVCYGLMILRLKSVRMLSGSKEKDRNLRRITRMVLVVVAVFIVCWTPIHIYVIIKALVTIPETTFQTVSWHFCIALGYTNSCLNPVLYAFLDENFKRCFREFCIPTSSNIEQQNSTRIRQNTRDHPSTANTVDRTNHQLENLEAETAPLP

CC(C)C[C@@H](NC(=O)[C@H](Cc1ccccc1)NC(=O)CNC(=O)[C@@H](C)NC(=O)[C@@H](N)Cc1ccc(O)cc1)C(=O)O [DADLE]
classification of opioid drug (agonist / neutral / negative antagonist) (opioid μ receptor [1]): full agonists and are either as effective if not more so than morphine

C[C@@H](NC(=O)[C@@H](N)Cc1ccc(O)cc1)C(=O)NCC(=O)N(C)[C@@H](Cc1ccccc1)C(=O)NCCO [DAMGO]
signaling, potency and efficacy relative to morphine (μ opioid receptor [2]): slightly more potent and efficacious than morphine | classification of opioid drug (agonist / neutral / negative antagonist) (opioid μ receptor [1]): full agonists and are either as effective if not more so than morphine | receptor phosphorylation, potency and efficacy relative to morphine [3]: slightly more potent and efficacious than morphine | receptor recycling through endocytic vesicles (μ opioid receptor [4]): induced massive receptor recycling through endocytic vesicles

CC1CNCCN1S(=O)(=O)c1cccc2cnccc12.Cl.Cl (centres unmarked) [H7, 1-(5-isoquinolinesulfonyl)-2-methylpiperazine dihydrochloride]
effect on gross behavior of the animals (Male ICR mice): without affecting gross behavior of the animals | effect on naloxone induced withdrawal jumping (Male ICR mice): strongly suppressed the number of naloxone precipitated jumps | protein kinase inhibition PKA (PKA): known to inhibit several protein kinases including PKA and PKC | effect on acute depression of cAMP levels by morphine (opioid μ receptor [5]): did not prevent the acute depression of cAMP levels by morphine | effect on spontaneous cAMP overshoot induced by morphine pretreatment (opioid μ receptor [5]): had some effects on the spontaneous cAMP overshoot | effect on naloxone cAMP overshoot / formation of μ* when added with morphine pretreatment (opioid μ receptor [5]; dihydrochloride): abolished the naloxone-induced cAMP overshoot; also recorded: completely prevents the formation of μ* receptors | reversal of naloxone cAMP overshoot / μ* activity when added after morphine pretreatment (opioid μ receptor [5]; dihydrochloride): rapidly reverses μ* activity; also recorded: completely reversed the naloxone cAMP overshoot | analgesia of second morphine dose, after H7 (Mice; mouse, in vivo): 90±10% | effect on morphine antinociception (Mice; mouse, in vivo): without affecting gross behavior of the animals or morphine antinociception | reversal of morphine tolerance (Mice; mouse, in vivo, dihydrochloride): fully reversed morphine tolerance; also recorded: completely reversed tolerance; also recorded: reverse morphine tolerance and dependence in mice | effect on μ receptor (μ*) phosphorylation ([3]; dihydrochloride): strongly inhibits μ receptor phosphorylation; also recorded: inhibited μ* receptor phosphorylation | protein kinase inhibition PKC (PKC): known to inhibit several protein kinases including PKA and PKC

Cl.Cl.NCCNS(=O)(=O)c1cccc2cnccc12 [H9, N-(2-aminoethyl)-5-isoquinolinesulfonamide dihydrochloride]
effect on naloxone cAMP overshoot / formation of μ* when added with morphine pretreatment (opioid μ receptor [5]): capable of preventing formation of the constitutively active μ receptor state

N=C(N)NCCNS(=O)(=O)c1cccc2cnccc12 [HA-1004, N(2-guanidinoethyl)-5-isoquinolinesulfonamide hydrochloride]
effect on naloxone cAMP overshoot / formation of μ* when added with morphine pretreatment (opioid μ receptor [5]): capable of preventing formation of the constitutively active μ receptor state

CC(C)Cn1c(=O)n(C)c(=O)c2[nH]cnc21 [IBMX, 3-isobutyl-1-methyl-xanthine]
cAMP phosphodiesterase inhibition (cAMP phosphodiesterase): cAMP phosphodiesterase inhibitor | effect on naloxone cAMP overshoot / formation of μ* when added with morphine pretreatment (opioid μ receptor [5]): suppresses μ* formation; also recorded: capable of preventing formation of the constitutively active μ receptor state | effect on μ receptor (μ*) phosphorylation [3]: suppressed μ receptor phosphorylation as observed for H7; also recorded: μ receptor kinase inhibitor; also recorded: inhibited μ* receptor phosphorylation

C=CCN1CC[C@]23c4c5ccc(O)c4O[C@H]2[C@@H](O)C=C[C@H]3[C@H]1C5 [Nalorphine]
classification of opioid drug (agonist / neutral / negative antagonist) (opioid μ receptor [1]): neutral antagonists | effect on cAMP levels / constitutive activity in morphine pretreated cells (opioid μ receptor [1]): no significant effect on cAMP levels in dependent cells

CN1[C@@H]2CC[C@H]1C[C@@H](OC(=O)C(CO)c1ccccc1)C2 (some centres unmarked) [atropine]
effect on m1-E360A basal activity [6]: decreasing effects on m1-E360A basal activity

COC[C@@H]([C@H](O)[C@H](O)C(=O)NCC[C@H](C)c1nc(/C=C/C[C@@H]2O[C@]3(C[C@@H](O)[C@@H]2C)O[C@H]([C@H](C[C@H](O)[C@H](C)[C@H](O)[C@H](C)/C=C(C)/C(C)=C/C=C/C(C)=C\C#N)OC)[C@H](OP(=O)(O)O)C3(C)C)co1)N(C)C [calyculin A]
effect on m1-E360A basal activity ([6]; HEK293 cells): enhanced the basal activity

O=C(CCCN1CCC(O)(c2ccc(Cl)cc2)CC1)c1ccc(F)cc1 [haloperidol]
negative antagonism at D2 receptor [7]: some degree of negative antagonism

CN1CC[C@]23c4c5ccc(O)c4O[C@H]2[C@@H](O)C=C[C@H]3[C@H]1C5 [morphine]
analgesia of second morphine dose, saline control (Mice; 10 mg/kg morphine sulfate 5 hours after 100 mg/kg, 30 minutes after saline): 22±14%

C=CCN1CC[C@]23c4c5ccc(O)c4O[C@H]2C(=O)CC[C@@]3(O)[C@H]1C5 [naloxone]
reversal of morphine dependence (Male ICR mice): does not reverse the dependent state in vivo | withdrawal jumps (Male ICR mice): 77±20 jumps

C=C1[C@@H](O)[C@@H]2O[C@]3(CC[C@H](/C=C/[C@@H](C)[C@@H]4CC(C)=C[C@@]5(O[C@H](C[C@@](C)(O)C(=O)O)CC[C@H]5O)O4)O3)CC[C@H]2O[C@@H]1[C@@H](O)C[C@H](C)[C@H]1O[C@@]2(CCCCO2)CC[C@H]1C [okadaic acid]
effect of phosphatase inhibitor on enhancing μ* (opioid μ receptor [5]): ineffective in enhancing μ*

CN1[C@@H]2C[C@@H](OC(=O)[C@H](CO)c3ccccc3)C[C@H]1[C@@H]1O[C@@H]12 [scopolamine]
classification at m1-E360A [6]: negative antagonists | effect on m1-E360A basal activity [6]: decreasing effects on m1-E360A basal activity

O=C(CCCN1CCC2(CC1)C(=O)NCN2c1ccccc1)c1ccc(F)cc1 [spiperone]
effect on cAMP levels in absence of agonist ([7]; incubation in absence of agonist, relative to control): decreased cAMP levels relative to control | negative antagonism at D2 receptor [7]: some degree of negative antagonism

CCN1CCCC1CNC(=O)c1cc(S(N)(=O)=O)ccc1OC (centres unmarked) [sulpiride]
negative antagonism at D2 receptor [7]: some degree of negative antagonism

OCCN1CCN(CCCN2c3ccccc3Sc3ccc(C(F)(F)F)cc32)CC1 [thuphenazine]
negative antagonism at D2 receptor [7]: some degree of negative antagonism

CN1CCN(CCCN2c3ccccc3Sc3ccc(C(F)(F)F)cc32)CC1 [trifluoperatine]
negative antagonism at D2 receptor [7]: some degree of negative antagonism

D-Phe-Cys-Tyr-D-Trp-Arg-Thr-Pen-Thr-NH2 [CTOP]
effect on acute depression of cAMP levels by morphine (opioid μ receptor [5]): block the acute effects of morphine; also recorded: reversed the reduction of the cAMP level caused by morphine | classification of opioid drug (agonist / neutral / negative antagonist) (opioid μ receptor [1]): neutral (null) antagonist; also recorded: neutral antagonists | effect on cAMP levels / constitutive activity in morphine pretreated cells (opioid μ receptor [1]): not to reverse the constitutive activity of the μ receptor state; also recorded: does not act as an inverse agonist; also recorded: no effect on the constitutively active μ receptor state; also recorded: do not affect cAMP levels; also recorded: no significant effect on cAMP levels in dependent cells | effect on naloxone cAMP overshoot when combined with naloxone (opioid μ receptor [1]): block the inverse agonist effects of naloxone; also recorded: Reversal of the naloxone cAMP overshoot | blockade of acute effects of morphine (previously known) (opioid μ receptor [8]): fully block the acute effects of morphine

D-Phe-Cys-Tyr-D-Trp-Arg-Thr-Pen-ThrNH2 [CTAP]
withdrawal jumps (Male ICR mice): 32±12 jumps
